Common to all, as to assay: Antibacterial activity (MIC), agar dilution per CLSI
Holding throughout (format): cell-based
(Agar dilution tests growth on a series of plates holding different concentrations.)

One assay relates to E. coli M 50. The note with it: E. coli M 50 expressing ESBL, agar dilution. The procedure:
(§1) The biological activity of representative compounds according to the invention against various bacterial strains was investigated. In a typical study, overnight grown bacterial cultures were diluted appropriately and inoculated on the agar media containing doubling dilutions of the test compounds. Observation for growth or no growth was performed after 16-20 hours of incubation at 35±2° C. in ambient air. The overall procedure was performed as per Clinical and Laboratory Standards Institute (CLSI) recommendations (Clinical and Laboratory Standards Institute (CLSI), Performance Standards for Antimicrobial Susceptibility Testing, 20th Informational Supplement, M 100-S20, Volume 30, No. 1, 2010).
The activities are expressed as MICs (mcg/ml).

A further assay relates to E. coli 7 MP. The note with it: Table 3, E. coli 7 MP expressing ESBL. How it is done: as §1
(§2) Table 3 details antibacterial activity of representative compounds according to the invention against various E. coli strains (NCTC 13351, M 50 and 7 MP) expressing ESBL (Extended Spectrum Beta Lactamases).

The next assay concerns E. coli NCTC 13351. The note with it: 16-20 hours, 35±2° C. How it is done: as §1, §2
Setting [1] is: Escherichia coli, M50, Table 3, read-out: MIC.
The mark [2] stands for this setting: Escherichia coli, read-out: MIC.
The mark [3] stands for this setting: Escherichia coli, NCTC13351, Table 3, E. coli NCTC 13351 expressing ESBL, read-out: MIC.
Where [4] appears, read: Table 3, E. coli NCTC 13351 expressing ESBL.

Values after ≈ are worked out from the molar mass of the structure shown. Like-named read-outs stand apart in the source and are kept apart here.

What is called MIC is the least concentration at which growth counts as inhibited. Turning to `NCC1(C(=O)NNC(=O)[C@H]2CC[C@@H]3CN2C(=O)N3OS(=O)(=O)O)CC1` (relative stereo) [Example 23, trans-sulfuric acid mono-[2-(N′-(1-aminomethyl-cyclopropan-1-carbonyl)-hydrazinocarbonyl)-7-oxo-1,6-diaza-bicyclo[3.2.1]oct-6-yl]ester], the minimum inhibitory concentration (MIC) in the assay on E. coli M 50 (setting [1]) stood at 4 µg/mL (≈ 10.6 µM); in the assay with E. coli 7 MP (setting [2]), 8 µg/mL (≈ 21.2 µM); in the assay with E. coli NCTC 13351 (setting [3]), 4 µg/mL (≈ 10.6 µM).
For `NC(=O)CCC(N)C(=O)NNC(=O)[C@H]1CC[C@@H]2CN1C(=O)N2OS(=O)(=O)O` (relative stereo) [Example 24, trans-sulfuric acid mono-[2-(N′-(2-amino-4-carboxamido-butanoyl)-hydrazinocarbonyl)-7-oxo-1,6-diaza-bicyclo[3.2.1]oct-6-yl]ester], the MIC in the assay on E. coli M 50 (Table 3) turned out to be 1 µg/mL (≈ 2.45 µM); against E. coli 7 MP it was 4 µg/mL (≈ 9.79 µM); with E. coli NCTC 13351 (setting [4]), 1 µg/mL (≈ 2.45 µM).
Turning to `NCCCCC(=O)NNC(=O)[C@H]1CC[C@@H]2CN1C(=O)N2OS(=O)(=O)O` (relative stereo) [Example 25, trans-sulfuric acid mono-[2-(N′-(5-amino-pentanoyl)-hydrazinocarbonyl)-7-oxo-1,6-diaza-bicyclo[3.2.1]oct-6-yl]ester], the minimum inhibitory concentration (MIC) turned out to be 1 µg/mL (≈ 2.64 µM) in the assay with E. coli M 50 (setting [1]), 4 µg/mL (≈ 10.5 µM) in the assay on E. coli 7 MP (setting [2]) and 1 µg/mL (≈ 2.64 µM) in the assay on E. coli NCTC 13351 (setting [3]).
For the compound `NCCOCC(=O)NNC(=O)[C@H]1CC[C@@H]2CN1C(=O)N2OS(=O)(=O)O` (relative stereo) [Example 27, trans-sulfuric acid mono-[2-(N′-((2-aminoethoxy)-acetyl)-hydrazinocarbonyl)-7-oxo-1,6-diaza-bicyclo[3.2.1]oct-6-yl]ester], the figures for the minimal inhibitory concentration (MIC) with E. coli M 50 (setting [1]), in the assay on E. coli 7 MP (setting [2]) and in the assay on E. coli NCTC 13351 (setting [3]) were 2 µg/mL (≈ 5.24 µM), 8 µg/mL (≈ 21 µM) and 4 µg/mL (≈ 10.5 µM), respectively.
With `O=C(NNC(=O)[C@H]1CC[C@@H]2CN1C(=O)N2OS(=O)(=O)O)C1CNC1` (relative stereo) [Example 28, trans-sulfuric acid mono-[2-(N′-[azetidin-3-carbonyl]-hydrazinocarbonyl)-7-oxo-1,6-diaza-bicyclo[3.2.1]oct-6-yl]ester], the results for the MIC with E. coli M 50 (setting [1]), with E. coli 7 MP (setting [2]) and in the assay on E. coli NCTC 13351 (setting [3]) were 1 µg/mL (≈ 2.75 µM), 4 µg/mL (≈ 11 µM) and 1 µg/mL (≈ 2.75 µM), respectively.
As to `O=C(NNC(=O)N1CCCC1)[C@H]1CC[C@@H]2CN1C(=O)N2OS(=O)(=O)O` (relative stereo) [Example 29, trans-sulfuric acid mono-[2-(N′-[pyrrolidin-1-carbonyl]-hydrazinocarbonyl)-7-oxo-1,6-diaza-bicyclo[3.2.1]oct-6-yl]ester], the minimum inhibitory concentration (MIC) worked out at 16 µg/mL (≈ 42.4 µM) in the assay on E. coli M 50 (setting [1]), 128 µg/mL (≈ 339 µM) in the assay with E. coli 7 MP (setting [2]) and 32 µg/mL (≈ 84.8 µM) in the assay on E. coli NCTC 13351 (setting [3]).
Take `O=C(CC[C@@H]1CCCN1)NNC(=O)[C@H]1CC[C@@H]2CN1C(=O)N2OS(=O)(=O)O` (relative stereo) [Example 31, trans-sulfuric acid mono-[2-(N′—[((S)-3-pyrrolidin-2-yl)-propionyl]-hydrazinocarbonyl)-7-oxo-1,6-diaza-bicyclo[3.2.1]oct-6-yl]ester]: the minimum inhibitory concentration (MIC) in the assay on E. coli M 50 (Table 3) stood at 1 µg/mL (≈ 2.47 µM); against E. coli 7 MP it was 4 µg/mL (≈ 9.87 µM); with E. coli NCTC 13351 (setting [4]) it was 1 µg/mL (≈ 2.47 µM).
As for `O=C(CC(=O)N1CCNCC1)NNC(=O)[C@H]1CC[C@@H]2CN1C(=O)N2OS(=O)(=O)O` (relative stereo) [Example 40, trans-sulfuric acid mono-[2-(N′-(3-oxo-3-piperazin-1-yl-propionyl)-hydrazinocarbonyl)-7-oxo-1,6-diaza-bicyclo[3.2.1]oct-6-yl]ester], the results for the MIC in the assay on E. coli M 50 (setting [1]), with E. coli 7 MP (setting [2]) and in the assay on E. coli NCTC 13351 (setting [3]) were 1 µg/mL (≈ 2.3 µM), 4 µg/mL (≈ 9.21 µM) and 1 µg/mL (≈ 2.3 µM), respectively.
For the compound `Nc1nc(C(=O)NNC(=O)[C@H]2CC[C@@H]3CN2C(=O)N3OS(=O)(=O)O)cs1` (relative stereo) [Example 42, trans-sulfuric acid mono-[2-(N′-(2-amino-thiazol-4-carbonyl)-hydrazinocarbonyl)-7-oxo-1,6-diaza-bicyclo[3.2.1]oct-6-yl]ester], the MIC was determined as 32 µg/mL (≈ 78.7 µM) in the assay on E. coli M 50 (setting [1]), 64 µg/mL (≈ 157 µM) with E. coli 7 MP (setting [2]) and 32 µg/mL (≈ 78.7 µM) with E. coli NCTC 13351 (setting [3]).
As to `CC(C)(C)OC(=O)NNC(=O)[C@H]1CC[C@@H]2CN1C(=O)N2OS(=O)(=O)[O-].[Na+]` (relative stereo) [Example 44, Sodium salt of trans-N′-(7-oxo-6-sulfooxy-1,6-diaza-bicyclo[3.2.1]octane-2-carboxylic acid)-hydrazinecarboxylic acid tert-butyl ester], the MIC came to 32 µg/mL against E. coli M 50 (Table 3), 64 µg/mL with E. coli 7 MP and 32 µg/mL against E. coli NCTC 13351 (setting [4]).
In the case of `O=C(NNC(=O)N1CCOCC1)[C@H]1CC[C@@H]2CN1C(=O)N2OS(=O)(=O)O.[Na]` (relative stereo) [Example 47, Sodium salt of trans-sulfuric acid mono-[2-(N′-(morpholin-4-oxo-carbonyl)-hydrazinocarbonyl)-7-oxo-1,6-diaza-bicyclo[3.2.1]oct-6-yl]ester], the minimal inhibitory concentration (MIC) in the assay on E. coli M 50 (Table 3) came to 64 µg/mL; against E. coli 7 MP, 128 µg/mL; with E. coli NCTC 13351 (setting [4]) it was 32 µg/mL.
Take `NC(=O)N1CCC[C@H]1C(=O)NNC(=O)[C@H]1CC[C@@H]2CN1C(=O)N2OS(=O)(=O)[O-].[Na+]` (relative stereo) [Example 48, Sodium salt of trans-sulfuric acid mono-[2-(N′—[(S)-1-carbamoyl-pyrrolidin-2-carbonyl]-hydrazinocarbonyl)-7-oxo-1,6-diaza-bicyclo [3.2.1]oct-6-yl]ester]: the minimum inhibitory concentration (MIC) in the assay with E. coli M 50 (Table 3) turned out to be 8 µg/mL; against E. coli 7 MP, 32 µg/mL; against E. coli NCTC 13351 (setting [4]), 16 µg/mL.
For the compound `NC(=O)N1C[C@@H](F)C[C@H]1C(=O)NNC(=O)C1CCC2CN1C(=O)N2OS(=O)(=O)[O-].[Na+]` (relative stereo) [Example 49, Sodium salt of trans-sulfuric acid mono-[2-(N′—[(2S,4S)-1-carbamoyl-4-fluoro-pyrrolidin-2-carbonyl]-hydrazinocarbonyl)-7-oxo-1,6-diaza-bicyclo[3.2.1]oct-6-yl]ester], the figures for the MIC against E. coli M 50 (Table 3), in the assay on E. coli 7 MP and in the assay with E. coli NCTC 13351 (setting [4]) were 16 µg/mL, 16 µg/mL and 32 µg/mL, respectively.
As for `CS(=O)(=O)N1CCC[C@H]1C(=O)NNC(=O)[C@H]1CC[C@@H]2CN1C(=O)N2OS(=O)(=O)[O-].[Na+]` (relative stereo) [Example 50, Sodium salt of trans-sulfuric acid mono-[2-(N′—[(S)-1-methanesulfonyl-pyrrolidin-2-carbonyl]-hydrazinocarbonyl)-7-oxo-1,6-diaza-bicyclo[3.2.1]oct-6-yl]ester], the minimum inhibitory concentration (MIC) against E. coli M 50 (Table 3) is 16 µg/mL; in the assay with E. coli 7 MP it was 32 µg/mL; in the assay with E. coli NCTC 13351 (setting [4]), 16 µg/mL.
As for `CC(C)(C#N)C(=O)NNC(=O)[C@H]1CC[C@@H]2CN1C(=O)N2OS(=O)(=O)[O-].[Na+]` (relative stereo) [Example 51, Sodium salt of trans-sulfuric acid mono-[2-(N′-(cyano-dimethyl-acetyl)-hydrazinocarbonyl)-7-oxo-1,6-diaza-bicyclo[3.2.1]oct-6-yl]ester], the figures for the minimal inhibitory concentration (MIC) in the assay on E. coli M 50 (Table 3), with E. coli 7 MP and against E. coli NCTC 13351 (setting [4]) were 16 µg/mL, 32 µg/mL and 16 µg/mL, respectively.
With `O=C1CC[C@@H](C(=O)NNC(=O)[C@H]2CC[C@@H]3CN2C(=O)N3OS(=O)(=O)[O-])N1.[Na+]` (relative stereo) [Example 52, Sodium salt of trans-sulfuric acid mono-[2-(N′—[(S)-5-oxo-pyrrolidin-2-carbonyl]-hydrazinocarbonyl)-7-oxo-1,6-diaza-bicyclo[3.2.1]oct-6-yl]ester], the minimal inhibitory concentration (MIC) came out at 0.5 µg/mL against E. coli M 50 (Table 3), 2 µg/mL against E. coli 7 MP and 0.5 µg/mL against E. coli NCTC 13351 (setting [4]).
As to `O=C(O)CON1C(=O)N2C[C@H]1CC[C@H]2C(=O)NNC(=O)[C@@H]1CCCNC1` [Example 4, trans-{7-oxo-2-[N′—((R)-piperidin-3-carbonyl)-hydrazinocarbonyl]-1,6-diaza-bicyclo[3.2.1]-oct-6-yloxy}-acetic acid], the results for the minimal inhibitory concentration (MIC) in the assay with E. coli M 50 (setting [1]), in the assay with E. coli 7 MP (setting [2]) and in the assay on E. coli NCTC 13351 (setting [3]) were 8 µg/mL (≈ 21.7 µM), 16 µg/mL (≈ 43.3 µM) and 8 µg/mL (≈ 21.7 µM), respectively.
As to `O=C(CN1CCOCC1)NNC(=O)C1CCC2CN1C(=O)N2OS(=O)(=O)[O-].[Na+]` (stereo not drawn) [Example 45, Sodium salt of trans-sulfuric acid mono-[2-(N′-(morpholin-4-yl-acetyl)-hydrazinocarbonyl)-7-oxo-1,6-diaza-bicyclo[3.2.1]oct-6-yl]ester], the minimum inhibitory concentration (MIC) in the assay on E. coli M 50 (Table 3) turned out to be 8 µg/mL; with E. coli 7 MP it was 8 µg/mL; against E. coli NCTC 13351 (setting [4]), 4 µg/mL.
For the compound `NC(=O)c1cccc(C(=O)NNC(=O)C2CCC3CN2C(=O)N3OS(=O)(=O)[O-])n1.[Na+]` (stereo not drawn) [Example 46, Sodium salt of trans-sulfuric acid mono-[2-(N′-(6-carboxamido-pyridin-2-carbonyl)-hydrazinocarbonyl)-7-oxo-1,6-diaza-bicyclo[3.2.1]oct-6-yl]ester], the values for the minimum inhibitory concentration (MIC) with E. coli M 50 (Table 3), with E. coli 7 MP and against E. coli NCTC 13351 (setting [4]) were 64 µg/mL, 128 µg/mL and 32 µg/mL, respectively.
